Reference: PubChem BioAssay (NCI)
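Grown in 96-well plates, cells were treated for 48 hours with each compound at five concentrations. Insufficient inhibition: endpoint recorded as highest concentration tested. TGI: total growth inhibition.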

Columns and labels:
Experiment in all cases: NCI tumour cell line growth inhibition, 48 h
[1] = system: 786-0 renal
[2] = system: CCRF-CEM leukemia
[3] = system: COLO 205 colon
[4] = system: HL-60(TB) leukemia
[5] = system: IGROV1 ovarian
[6] = system: K-562 leukemia
[7] = system: LOX IMVI melanoma
[8] = system: M14 melanoma
[9] = system: MALME-3M melanoma
[10] = system: NCI-H23 lung
[11] = system: NCI-H460 lung
[12] = system: OVCAR-8 ovarian
[13] = system: RPMI-8226 leukemia
[14] = system: SF-295 CNS
[15] = system: SK-MEL-28 melanoma
[16] = system: SN12C renal
[17] = system: T-47D breast
[18] = system: TK-10 renal
[19] = system: U251 CNS

SMILES	TGI [1] [µM]	TGI [2] [µM]	TGI [3] [µM]	TGI [4] [µM]	TGI [5] [µM]	TGI [6] [µM]	TGI [7] [µM]	TGI [8] [µM]	TGI [9] [µM]	TGI [10] [µM]	TGI [11] [µM]	TGI [12] [µM]	TGI [13] [µM]	TGI [14] [µM]	TGI [15] [µM]	TGI [16] [µM]	TGI [17] [µM]	TGI [18] [µM]	TGI [19] [µM]
Cc1ccc(S[C@@H](C)[C@@](O)(C(N)=O)c2ccccc2)cc1	> 100	26.2	> 100	> 100	15.5	44.5	33.7	> 100	42.8	> 100	> 100	> 100	74.8	41.9	> 100	> 100	> 100	> 100	> 100
c1cc2c(cc1C1=NCCN1)c1cc(C3=NCCN3)ccc1n2CC1CCCCC1	96.4	50.2	20.4	59.6	69.7	> 100	39.7	> 100	23.8	88.9	34.5	> 100	> 100	> 100	26.7	80.1	84.7	> 100	22.9
O=C(NCCCCCN1CCC2(CCCCC2)CC1)C(C1CCCCC1)C1CCCCC1	9.65	11.9	2.84	3.62	8.78	3.5	7.02	3.23	3.26	9.89	6.46	7.23	4.71	3.56	3.64	9.67	8.43	10.4	8.53
O=P(O)(O)CN1CCNCCN(CP(=O)(O)O)CC1	> 100	> 70.5	18.7	18.2	> 100	> 76.6	> 100	> 100	> 100	> 100	> 100	> 51	> 100	> 100	> 100	> 100	> 100	> 100	> 100
CCOC(=O)C1=C(C)N(Cc2ccccc2)C2(O)C=CC(=O)C3=C(O)c4ccccc4C(=O)C312 (stereo not given)	26.2	36.5	30.4	42.1	17.5	61	36.6	16.3	8.35	26.7	24.4	39	31.2	31.4	> 100	32.1	45	32.5	38.5
